The source made the active and inactive calls. The calls are words filed in the database; no cut-off is given here.
How the values were obtained:
[1] = Selectivity index, ratio of IC50 for human G6PDH to IC50 for Trypanosoma cruzi G6PDH
[2] = molecular target: T1, Glucose-6-phosphate 1-dehydrogenase (Homo sapiens, UniProt P11413); test: Inhibition of recombinant human G6PDH expressed in Escherichia coli at 80 uM by fluorescence assay
[3] = Inhibition of recombinant Trypanosoma cruzi G6PDH expressed in Escherichia coli by fluorescence assay
Trypanosoma cruzi [4] = test: Antitrypanosomal activity against Trypanosoma cruzi Y amastigotes infected in rat H9C2 cells assessed as reduction in parasite infection at 20 uM after 72 hrs by Hoechst 33342 staining based fluorescence microscopy; assay type: functional, organism-based
H9c2 [5] = test: Cytotoxicity against rat H9c2 cells at 20 uM after 72 hrs by Hoechst 33342 staining based fluorescence microscopy; assay type: cell-based; details: h9c2, 72 h
Trypanosoma cruzi [6] = test: Antitrypanosomal activity against Trypanosoma cruzi Y amastigotes infected in rat H9C2 cells after 72 hrs by Hoechst 33342 staining based fluorescence microscopy; assay type: functional, organism-based; details: H9c2, 72 h
H9c2 [7] = test: Cytotoxicity against rat H9c2 cells after 72 hrs by Hoechst 33342 staining based fluorescence microscopy; assay type: cell-based; details: H9c2, 72 h
[8] = Selectivity index, ratio of EC50 for cytotoxicity against rat H9C2 cells to EC50 for antitrypanosomal activity against Trypanosoma cruzi Y amastigotes infected in rat H9C2 cells; assay type: toxicity, cell-based; details: read-out: Ratio EC50
[9] = molecular target: T1, Glucose-6-phosphate 1-dehydrogenase; test: Inhibition of recombinant human G6PDH expressed in Escherichia coli by fluorescence assay
Trypanosoma cruzi [10] = test: Antitrypanosomal activity against Trypanosoma cruzi Y amastigotes infected in rat H9C2 rat cells assessed as reduction in number of infected cells at 10 uM after 72 hrs by Hoechst 33342 staining based fluorescence microscopy; assay type: functional, organism-based

T1 sequence (P11413 whole entry): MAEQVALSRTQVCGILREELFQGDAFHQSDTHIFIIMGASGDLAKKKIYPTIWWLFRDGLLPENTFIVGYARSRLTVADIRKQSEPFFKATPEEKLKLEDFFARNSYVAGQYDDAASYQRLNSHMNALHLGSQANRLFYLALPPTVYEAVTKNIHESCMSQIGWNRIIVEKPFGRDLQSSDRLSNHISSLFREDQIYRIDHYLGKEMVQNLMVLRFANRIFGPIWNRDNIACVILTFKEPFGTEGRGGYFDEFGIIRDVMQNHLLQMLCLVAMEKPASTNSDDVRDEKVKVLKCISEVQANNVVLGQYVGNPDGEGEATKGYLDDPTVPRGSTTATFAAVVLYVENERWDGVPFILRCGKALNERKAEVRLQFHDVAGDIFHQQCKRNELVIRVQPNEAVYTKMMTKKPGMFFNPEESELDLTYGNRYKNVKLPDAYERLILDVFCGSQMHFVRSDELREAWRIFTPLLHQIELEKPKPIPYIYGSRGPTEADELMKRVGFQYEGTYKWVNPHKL

Row | SMILES | IC50 [3] [µM] | Activity (Trypanosoma cruzi [4]) | Activity (H9c2 [5]) | EC50 (H9c2 [7]) [µM] | further results
1 | CC(C)C(=O)O[C@H]1CC[C@@]2(C)[C@@H](CC[C@@H]3[C@@H]2CC[C@]2(C)C(=O)[C@H](Br)C[C@@H]32)C1 | 0.15 to 0.38 | – | – | – | Ratio IC50 [1]: > 400; inhibition (INH) [2]: Not Active
2 | C[C@]12CC[C@H](OS(C)(=O)=O)C[C@@H]1CC[C@@H]1[C@@H]2CC[C@]2(C)C(=O)CC[C@@H]12 | – | inactive | Non-Toxic | – | Ratio IC50 [1]: 2
3 | C=CCC(=O)O[C@H]1CC[C@@]2(C)[C@@H](CC[C@@H]3[C@@H]2CC[C@]2(C)C(=O)[C@H](Br)C[C@@H]32)C1 | 0.15 to 0.38 | Active | Toxic | 54 | EC50 (Trypanosoma cruzi [6]): 16.7 µM; selectivity ratio [8]: 3.2
4 | CC(=O)O[C@H]1CC[C@@]2(C)[C@@H](CC[C@@H]3[C@@H]2CC[C@]2(C)C(=O)CC[C@@H]32)C1 | > 3 | inactive | Non-Toxic | – | –
5 | CC(=O)O[C@H]1CC[C@@]2(C)[C@@H](CC[C@@H]3[C@@H]2CC[C@]2(C)C(=O)[C@H](Br)C[C@@H]32)C1 | 0.15 to 0.38 | Active | Toxic | 14.7 | Ratio IC50 [1]: 160; EC50 (Trypanosoma cruzi [6]): 8.5 µM; selectivity ratio [8]: 1.7
6 | CN1CCN(CCS(=O)(=O)O[C@H]2CC[C@@]3(C)[C@@H](CC[C@@H]4[C@@H]3CC[C@]3(C)C(=O)CC[C@@H]43)C2)CC1 | 5 | inactive | Non-Toxic | – | –
7 | C[C@]12CC[C@H](OC[C@@H](O)CN3CCOCC3)C[C@@H]1CC[C@@H]1[C@@H]2CC[C@]2(C)C(=O)CC[C@@H]12 | – | – | – | – | IC50 [9]: > 40 µM
8 | C[C@]12CC[C@H](OC(=O)CCN3CCOCC3)C[C@@H]1CC[C@@H]1[C@@H]2CC[C@]2(C)C(=O)CC[C@@H]12 | 10 | – | – | – | –
9 | C[C@]12CC[C@H](OC(=O)CN3CCOCC3)C[C@@H]1CC[C@@H]1[C@@H]2CC[C@]2(C)C(=O)CC[C@@H]12 | 10 | – | – | – | –
10 | CN1CCN(CCC(=O)O[C@H]2CC[C@@]3(C)[C@@H](CC[C@@H]4[C@@H]3CC[C@]3(C)C(=O)CC[C@@H]43)C2)CC1 | 10 | – | – | – | –
11 | C[C@]12CC[C@H](OS(=O)(=O)CCN3CCOCC3)C[C@@H]1CC[C@@H]1[C@@H]2CC[C@]2(C)C(=O)CC[C@@H]12 | 5 | inactive | Non-Toxic | – | –
12 | C=CCC(=O)O[C@H]1CC[C@@]2(C)[C@@H](CC[C@@H]3[C@@H]2CC[C@]2(C)C(=O)CC[C@@H]32)C1 | > 3 | inactive | Non-Toxic | – | –
13 | C[C@]12CC[C@H](O)C[C@@H]1CC[C@@H]1[C@@H]2CC[C@]2(C)C(=O)[C@H](Br)C[C@@H]12 [16.ALPHA.-BROMOEPIANDROSTERONE] | – | Active | Toxic | 13 | Ratio IC50 [1]: 2; EC50 (Trypanosoma cruzi [6]): 6.4 µM; selectivity ratio [8]: 2
14 | CC(C)CO[C@H]1CC[C@@]2(C)[C@@H](CC[C@@H]3[C@@H]2CC[C@]2(C)C(=O)[C@H](Br)C[C@@H]32)C1 | – | Active | Toxic | 12.3 | EC50 (Trypanosoma cruzi [6]): 4.2 µM; Activity (Trypanosoma cruzi [10]): Active; selectivity ratio [8]: 2.9
15 | C[C@]12CCCC[C@@H]1CC[C@@H]1[C@@H]2CC[C@]2(C)C(=O)[C@H](Br)C[C@@H]12 | – | Active | Toxic | 8.4 | EC50 (Trypanosoma cruzi [6]): 3.5 µM; selectivity ratio [8]: 2.4
16 | CN1CCN(C[C@@H](O)CO[C@H]2CC[C@@]3(C)[C@@H](CC[C@@H]4[C@@H]3CC[C@]3(C)C(=O)CC[C@@H]43)C2)CC1 | – | – | – | – | IC50 [9]: > 40 µM
17 | C[C@]12CC[C@H](O)C[C@@H]1CC[C@@H]1[C@@H]2CC[C@]2(C)C(=O)CC[C@@H]12 [EPIANDROSTERONE] | – | inactive | Non-Toxic | – | –
18 | C[C@]12CC[C@H](OS(C)(=O)=O)C[C@@H]1CC[C@@H]1[C@@H]2CC[C@]2(C)C(=O)[C@H](Br)C[C@@H]12 | – | Active | Toxic | 7.5 | Ratio IC50 [1]: 6; EC50 (Trypanosoma cruzi [6]): 2.4 µM; Activity (Trypanosoma cruzi [10]): Active; selectivity ratio [8]: 3.1
19 | C[C@]12CC[C@H](OCC(=O)N3CCOCC3)C[C@@H]1CC[C@@H]1[C@@H]2CC[C@]2(C)C(=O)[C@H](Br)C[C@@H]12 | – | Active | Toxic | 5.6 | Ratio IC50 [1]: 5 to 10; EC50 (Trypanosoma cruzi [6]): 3.2 µM; selectivity ratio [8]: 1.8
20 | O=C(Cn1ccnc1[N+](=O)[O-])NCc1ccccc1 [BENZNIDAZOLE] | – | – | – | > 40 | Activity (Trypanosoma cruzi [10]): Active
21 | CO[C@H]1CC[C@@]2(C)[C@@H](CC[C@@H]3[C@@H]2CC[C@]2(C)C(=O)CC[C@@H]32)C1 | – | inactive | Non-Toxic | – | –
22 | C[C@]12CC[C@H](OCCS(=O)(=O)N3CCOCC3)C[C@@H]1CC[C@@H]1[C@@H]2CC[C@]2(C)C(=O)[C@H](Br)C[C@@H]12 | – | Active | Toxic | 8.5 | Ratio IC50 [1]: 5 to 10; EC50 (Trypanosoma cruzi [6]): 2.4 µM; Activity (Trypanosoma cruzi [10]): Active; selectivity ratio [8]: 3.5
23 | C[C@]12CC[C@H](OC[C@H](O)CN3CCOCC3)C[C@@H]1CC[C@@H]1[C@@H]2CC[C@]2(C)C(=O)CC[C@@H]12 | – | – | – | – | IC50 [9]: > 40 µM
24 | CC(C)C(=O)O[C@H]1CC[C@@]2(C)[C@@H](CC[C@@H]3[C@@H]2CC[C@]2(C)C(=O)CC[C@@H]32)C1 | > 3 | inactive | Non-Toxic | – | –
25 | CN1CCN(CC(=O)O[C@H]2CC[C@@]3(C)[C@@H](CC[C@@H]4[C@@H]3CC[C@]3(C)C(=O)CC[C@@H]43)C2)CC1 | 10 | – | – | – | –
26 | CN1CCN(C[C@H](O)CO[C@H]2CC[C@@]3(C)[C@@H](CC[C@@H]4[C@@H]3CC[C@]3(C)C(=O)CC[C@@H]43)C2)CC1 | – | – | – | – | IC50 [9]: > 40 µM
27 | C[C@]12CC[C@H](OCCS(=O)(=O)N3CCOCC3)C[C@@H]1CC[C@@H]1[C@@H]2CC[C@]2(C)C(=O)CC[C@@H]12 | 20 | – | – | – | –
